From US11452727B2, “Combination therapy for treating cancer” (Epizyme, Inc., priority 2017, dated 2022)

Experiments:
Assay in all cases: In vitro combination study with tazemetostat, cell proliferation (Cell Titer Glo)
NCI-H1299 = conditions: 7 days tazemetostat pre-treatment, 6 days co-treatment with second agent
NCI-H661 = conditions: 7 days tazemetostat pre-treatment, 6 days co-treatment with second agent
NCI-H460 = conditions: 7 days tazemetostat pre-treatment, 6 days co-treatment with second agent
Calu-6 = conditions: 7 days tazemetostat pre-treatment, 6 days co-treatment with second agent
NCI-H1703 = conditions: 7 days tazemetostat pre-treatment, 6 days co-treatment with second agent
NCI-H2110 = conditions: 7 days tazemetostat pre-treatment, 6 days co-treatment with second agent
Calu-3 = conditions: 7 days tazemetostat pre-treatment, 6 days co-treatment with second agent
A549 = conditions: 7 days tazemetostat pre-treatment, 6 days co-treatment with second agent
NCI-H838 = conditions: 7 days tazemetostat pre-treatment, 6 days co-treatment with second agent
NCI-H522 = conditions: 7 days tazemetostat pre-treatment, 6 days co-treatment with second agent
NCI-H23 = conditions: 7 days tazemetostat pre-treatment, 6 days co-treatment with second agent
NCI-H2122 = conditions: 7 days tazemetostat pre-treatment, 6 days co-treatment with second agent
HCC827 = conditions: 7 days tazemetostat pre-treatment, 6 days co-treatment with second agent
A427 = conditions: A427; 7 days tazemetostat pre-treatment, 6 days co-treatment with second agent
NCI-H1793 = conditions: 7 days tazemetostat pre-treatment, 6 days co-treatment with second agent
NCI-H1573 = conditions: 7 days tazemetostat pre-treatment, 6 days co-treatment with second agent
NCI-H1993 = conditions: 7 days tazemetostat pre-treatment, 6 days co-treatment with second agent
NCI-H2030 = conditions: 7 days tazemetostat pre-treatment, 6 days co-treatment with second agent

Question: Which “combinatorial effect with tazemetostat (Loewe volume class)” value (from here on “combinatorial effect with tazemetostat”) (NCI-H1299) does the source give for `O=C(CCCCCCC(=O)Nc1ccccc1)NO` [Vorinostat, vorinostat] here?
Answer: Add. (A value between −1 and 1 denoted “additivity”)

Question: What about the “combinatorial effect with tazemetostat” value (NCI-H661) of the same molecule?
Answer: Add. (A value between −1 and 1 denoted “additivity”)

Question: What about the “combinatorial effect with tazemetostat” value (NCI-H460) of the same molecule?
Answer: Syn. (Loewe volumes greater than 1 denoted “synergy”)

Question: And the “combinatorial effect with tazemetostat” value (Calu-6)?
Answer: Syn. (Loewe volumes greater than 1 denoted “synergy”)

Question: And the “combinatorial effect with tazemetostat” value (NCI-H1703)?
Answer: Syn. (Loewe volumes greater than 1 denoted “synergy”)

Question: And the “combinatorial effect with tazemetostat” value (NCI-H2110)?
Answer: Add. (A value between −1 and 1 denoted “additivity”)

Question: What about the “combinatorial effect with tazemetostat” value (Calu-3) of the same molecule?
Answer: Add. (A value between −1 and 1 denoted “additivity”)

Question: What about the “combinatorial effect with tazemetostat” value (A549) of the same molecule?
Answer: Add. (A value between −1 and 1 denoted “additivity”)

Question: And the “combinatorial effect with tazemetostat” value (NCI-H838)?
Answer: Add. (A value between −1 and 1 denoted “additivity”)

Question: And the “combinatorial effect with tazemetostat” value (NCI-H522)?
Answer: Syn. (Loewe volumes greater than 1 denoted “synergy”)

Question: What about the “combinatorial effect with tazemetostat” value (NCI-H23) of the same molecule?
Answer: Syn. (Loewe volumes greater than 1 denoted “synergy”)

Question: What about the “combinatorial effect with tazemetostat” value (NCI-H2122) of the same molecule?
Answer: Add. (A value between −1 and 1 denoted “additivity”)

Question: What about the “combinatorial effect with tazemetostat” value (HCC827) of the same molecule?
Answer: Add. (A value between −1 and 1 denoted “additivity”)

Question: What about the “combinatorial effect with tazemetostat” value (A427) of the same molecule?
Answer: Syn. (Loewe volumes greater than 1 denoted “synergy”)

Question: And the “combinatorial effect with tazemetostat” value (NCI-H1793)?
Answer: Syn. (Loewe volumes greater than 1 denoted “synergy”)

Question: And the “combinatorial effect with tazemetostat” value (NCI-H1573)?
Answer: Syn. (Loewe volumes greater than 1 denoted “synergy”)

Question: And the “combinatorial effect with tazemetostat” value (NCI-H1993)?
Answer: Add. (A value between −1 and 1 denoted “additivity”)

Question: And the “combinatorial effect with tazemetostat” value (NCI-H2030)?
Answer: Syn. (Loewe volumes greater than 1 denoted “synergy”)
